Laboratory results as given in patent publication US10870638B2, “Pyridazinone compound or its salt, and herbicide containing it” (ISHIHARA SANGYO KAISHA, LTD., priority 2016, dated 2020).

Assays:
Format in all cases: in vivo
[1] = tested on: wild oat (Avena fatua L.); assay: Test Example 1: foliar treatment, growth inhibition rate on 14th day; details: active ingredient amount 31 g/ha, 14th day after application, visual, 0 = non-treated, 100 = complete kill
Outline: (§1)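 Growth inhibition rates (%) come from visual observation on the 14th day following a single foliar application. Soybean was sprayed at the primary leaf stage, rice at 0.2–2.7 leaves, wild oat at 0.4–1.2, green foxtail at 0.5–3.2.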

[2] = tested on: italian ryegrass (Lolium multiflorum Lam.); assay: as above; details: active ingredient amount 31 g/ha, 14th day after application, visual, 0 = non-treated, 100 = complete kill
Outline: (§2)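 Visual 0–100% inhibition scoring (100 = complete kill) at 14 days after foliar treatment of soil-grown seedlings at species-specific leaf stages, with the compound sprayed as a wettable powder or emulsifiable concentrate dilution.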

[3] = tested on: crabgrass (Digitaria sanquinalis L.); assay: as above; details: active ingredient amount 31 g/ha, 14th day after application, visual, 0 = non-treated, 100 = complete kill
Outline: as §2

[4] = tested on: soybean (Glycine max Merr.); assay: as above; details: active ingredient amount 31 g/ha, 14th day after application, visual, 0 = non-treated, 100 = complete kill
Outline: as §1

[5] = tested on: rice (Oryza sativa L.); assay: as above; details: active ingredient amount 31 g/ha, 14th day after application, visual, 0 = non-treated, 100 = complete kill
Outline: as §1

[6] = tested on: green foxtail (Setaria viridis L.); assay: as above; details: active ingredient amount 31 g/ha, 14th day after application, visual, 0 = non-treated, 100 = complete kill
Outline: as §1

[7] = tested on: redroot pigweed (Amaranthus retroflexus L.); assay: as above; details: active ingredient amount 31 g/ha, 14th day after application, visual, 0 = non-treated, 100 = complete kill
Outline: as §2

[8] = tested on: barnyardgrass (Echinochloa crus-qalli L.); assay: as above; details: active ingredient amount 31 g/ha, 14th day after application, visual, 0 = non-treated, 100 = complete kill
Outline: as §2

[9] = tested on: corn (Zea mays L.); assay: as above; details: active ingredient amount 31 g/ha, 14th day after application, visual, 0 = non-treated, 100 = complete kill
Outline: as §2

[10] = tested on: wheat (Triticum aestivum L.); assay: as above; details: active ingredient amount 31 g/ha, 14th day after application, visual, 0 = non-treated, 100 = complete kill
Outline: as §2

[11] = tested on: prickly sida (Sida spinosa L.); assay: Test Example 2: soil application on the day after sowing, growth inhibition rate on 14th day; details: active ingredient amount 31 g/ha, 14th day after application
Outline: (§3)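 Pre-emergence soil spray, day after sowing; WP or EC formulations diluted to 1,000 L/ha water at set a.i. rates. Visual growth inhibition %, 0 = untreated, 100 = complete kill, read at day 14.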

[12] = tested on: soybean (Glycine max Merr.); assay: as above; details: active ingredient amount 31 g/ha, 14th day after application
Outline: as §3

[13] = tested on: rice (Oryza sativa L.); assay: as above; details: active ingredient amount 31 g/ha, 14th day after application
Outline: as §3

[14] = tested on: crabgrass (Digitaris sanquinalis L.); assay: as above; details: active ingredient amount 31 g/ha, 14th day after application
Outline: as §3

[15] = tested on: green foxtail (Setaria viridis L.); assay: as above; details: active ingredient amount 31 g/ha, 14th day after application
Outline: as §3

[16] = tested on: redroot pigweed (Amaranthus retroflexus L.); assay: as above; details: active ingredient amount 31 g/ha, 14th day after application
Outline: as §3

[17] = tested on: barnyardgrass (Echinochloa crus-qalli L.); assay: as above; details: active ingredient amount 31 g/ha, 14th day after application
Outline: as §3

[18] = tested on: corn (Zea mays L.); assay: as above; details: active ingredient amount 31 g/ha, 14th day after application
Outline: as §3

[19] = tested on: velvetleaf (Abutilon theophrasti MEDIC.); assay: as above; details: active ingredient amount 31 g/ha, 14th day after application
Outline: as §3

[20] = tested on: wheat (Triticum aestivum L.); assay: as above; details: active ingredient amount 31 g/ha, 14th day after application
Outline: as §3

SMILES | Growth inhibition rate (%) Wild oat [1] [%] | Growth inhibition rate (%) Italian ryegrass [2] [%] | Growth inhibition rate (%) Crabgrass [3] [%] | Growth inhibition rate (%) Soybean [4] [%] | Growth inhibition rate (%) Rice [5] [%] | Growth inhibition rate (%) Green foxtail [6] [%] | Growth inhibition rate (%) Redroot pigweed [7] [%] | Growth inhibition rate (%) Barnyardgrass [8] [%] | Growth inhibition rate (%) Corn [9] [%] | Growth inhibition rate (%) Wheat [10] [%] | Growth inhibition rate (%) Prickly sida [11] [%] | Growth inhibition rate (%) Soybean [12] [%] | Growth inhibition rate (%) Rice [13] [%] | Growth inhibition rate (%) Crabgrass [14] [%] | Growth inhibition rate (%) Green foxtail [15] [%] | Growth inhibition rate (%) Redroot pigweed [16] [%] | Growth inhibition rate (%) Barnyardgrass [17] [%] | Growth inhibition rate (%) Corn [18] [%] | Growth inhibition rate (%) Velvetleaf [19] [%] | Growth inhibition rate (%) Wheat [20] [%]
C=CC(=O)Oc1c(C)nn(C)c(=O)c1-c1cc(Oc2cnc3cc(Cl)ccc3n2)ccc1C [Compound 3-49] | 98 | 100 | 100 | 20 | 50 | 100 | 0 | 99 | 45 | 99 | 0 | 0 | 0 | 20 | 85 | 0 | 95 | 0 | 0 | 10
C#CC(=O)Oc1c(C)nn(C)c(=O)c1-c1cc(Oc2cnc3cc(Cl)ccc3n2)ccc1C [Compound 3-82] | 98 | 98 | 98 | 0 | 93 | 100 | 10 | 100 | 35 | 98 | 0 | 0 | 0 | 85 | 99 | 0 | 99 | 0 | 0 | 0
COCCOC(=O)Oc1c(C)nn(C)c(=O)c1-c1cc(Oc2cnc3cc(Cl)ccc3n2)ccc1C [Compound 3-55] | 99 | 99 | 99 | 30 | 90 | 100 | 0 | 98 | 50 | 98 | 0 | 0 | 0 | 30 | 60 | 0 | 80 | 0 | 0 | 0
CCn1nc(C)c(O)c(-c2cc(Oc3cnc4cc(Cl)ccc4n3)ccc2C)c1=O [Compound 3-96] | 98 | 99 | 100 | 0 | 95 | 100 | 0 | 100 | 20 | 95 | 0 | 0 | 75 | 98 | 85 | 0 | 99 | 0 | 0 | 0
